From US10246498B2, “Genetically encoded histone reporter allele constructs” (THE JOHNS HOPKINS UNIVERSITY, priority 2014, dated 2019)
Entries after “also recorded” stand apart in the source; their conditions may differ.

What was measured:
[1] = test system: H3K4 trimethylation activity in MEFs; experiment: H3K4me3 indicator in murine embryonic fibroblasts from Kmt2d+/βGeo and Kmt2d+/+ mice; assay type: cell-based, mouse; details: Kmt2d+/βGeo cells (MEFs)
Text: An H3K4 trimethylation reporter was also created (FIG. 5B). This reporter is based on the H3 tail on one end and the TBP associated factor III (TAFIII) […] on the other end; the TAFIII […] only identifies and binds to trimethylated K4 on H3. When the H3K4 site gets trimethylated, the TAFIII […] can bind to the modified H3 tail and bring the two parts of the separated GFP in close proximity. The activity of the epigenetic modification system can be quantified through fluorescence.
(§1) Epigenetic reporter alleles were synthesized (OriGene, Rockville, Md.) using published sequences for component elements (Baird et al. (1999) Proc. Natl. Acad. Sci. 96:11241-6; Souslova et al. (2007) BMC Biotechnol. 7:37). Single nucleotide mutations were created using the QuickChange Lightening kit (Agilent Technologies Inc, Santa Clara, Calif.). For H4ac indicator, K5R, K8R, K12R, K16R and K20R (MUT indicator) were introduced. For H3K4me3 indicator, K4Q and D890A/W891A and M882A (three separate constructs) were introduced. For transient transfections, mouse embryonic fibroblasts (see below) were transfected with Fugene HD (Promega, Madison, Wis.), 48 hours prior to FACS. […] For drug stimulation, drug was added to the media 24 hours prior to FACS. For stable transfections in T293 (American Type Culture Collection) cells, 10 μg/ml of Blastocidin (Life Technologies, Carlsbad, Calif.) was added to the media for several weeks. For stable transfection in MEFs, the reporter was transferred to a ViraPower Lentiviral Expression System (Life Technologies, Carlsbad, Calif.). After selection with Blastocidin, the drug of interest was added 24 hours prior to FACS. SAHA, AR-42 and MS275 were purchased from Selleck (Selleck Chemicals, Houston, Tex.). […] FACS data were analyzed using FlowJo (Tree Star Inc, Ashland, Oreg.). A plasmid expressing HDAC3 was acquired from Addgene (Cambridge, Mass., plasmid 13819) and transfected into a stable cell line carrying the H4 acetyl reporter allele.

[2] = test system: acetylation machinery (acetylation of H4 at K5, K8, K12, K16); experiment: H4 acetylation (H4ac) reporter allele, GFP fluorescence by FACS; assay type: cell-based; details: for cells easily discriminated from auto fluorescence (% positive cells), H4ac reporter: FACS
Text: The acetyl reporter protein quantifies the activity of the acetylation machinery (acetylation of H4 specifically at the 5th, 8th, 12th and 16th Lysine's) and comprises an H4 tail on one end (the target for acetylation) and a TBP associated factor II (TAFII) bromodomain on the other end of the reporter protein (FIG. 5A). The TAFII bromodomain only recognizes and binds to the acetylated H4 tail, resulting in reconstitution of GFP structure and function (i.e. fluorescence). Therefore, the reporter protein has no fluorescence unless it is acetylated by the acetylation system of the nucleus of the cell.
as §1
Epigenetic reporter systems were created that monitor either H4 acetylation or H3K4 trimethylation machinery activity in an effort to determine whether there is an ongoing activity deficiency in cells from Kmt2d^+/βGeo mice (FIG. 18A). Both reporter alleles encode halves of green fluorescent protein separated by a flexible linker region (Baird et al. (1999) Proc. Natl. Acad. Sci. 96: 11241-6) with a histone tail and a histone reader at the N- and C-termini, respectively. When the histone tail corresponding to either H4 or H3 is modified by acetylation or methylation, respectively, GFP structure and function are reconstituted, as detected by a fluorescent readout (FIG. 18B). The acetyl reporter protein quantifies the activity of the acetylation machinery (acetylation of H4 specifically at sites K5, K8, K12, and K16) and comprises an H4 tail (residues 1-30) on one end and a TATA binding protein (TBP)-associated factor II (TAFII) bromodomain on the other end (FIG. 18A). The TAFII bromodomain only recognizes and binds to the acetylated H4 tail. […] For example, only 5% of cells were easily discriminated from auto fluorescence with 1 μM of SAHA, but increased to 20% with 2.5 μM of SAHA, 40% at 7.5 μM of SAHA and 45% at 10 μM of SAHA (FIG. 18D). Saturation of this response correlates well with immunoblot data using antibodies to the modified H4 tail (Munshi et al. (2006) Mol. Cancer Ther. 5:1967-74). This response is attenuated by co-transfection with a construct encoding a histone deacetylase (FIG. 20) and absent upon mutagenesis of all potential acetylation sites (FIG. 18E and FIG. 18I), attesting to its specificity. The H3K4 trimethylation reporter allele encodes the H3 tail (residues 1-40) on one end and the TBP-associated factor III (TAF3) plant homeodomain (PHD) on the other end, which binds to trimethylated K4 on H3 (FIG. 18A). […]

Nc1ccccc1NC(=O)c1ccc(CNC(=O)OCc2cccnc2)cc1 [MS275]
H3K4 trimethylation activity [1]: enhanced; also recorded: improved

O=C(CCCCCCC(=O)Nc1ccccc1)NO [SAHA, suberoylanilide hydroxamic acid]
cells easily discriminated from auto fluorescence (% positive cells), H4ac reporter ([2]; 1 μM SAHA): 5% | cells easily discriminated from auto fluorescence (% positive cells), H4ac reporter ([2]; 2.5 μM SAHA): 20% | cells easily discriminated from auto fluorescence (% positive cells), H4ac reporter ([2]; 7.5 μM SAHA): 40% | cells easily discriminated from auto fluorescence (% positive cells), H4ac reporter ([2]; 10 μM SAHA): 45% | acetylation of the indicator ([2]; FIG. 19A): increases acetylation of the indicator | signal of the H4ac indicator ([2]; HEK293 cells stably expressing the indicator, attenuated by recombinant HDAC3): increased signal | fluorescence response of the acetylation indicator ([2]; increasing amounts of drug, culture systems): linear fluorescence response; also recorded: increasing fluorescence with increasing amounts
